Results published in ChEMBL document CHEMBL3885861, “Open TG-GATES”.

Species: Rattus norvegicus
Assay: Open TG-GATES - Regimen: Daily Repeat
Type: toxicity, organism-based, Sprague-Dawley
Design: regimen Daily Repeat, gender Male, age 6 weeks
Details: in vivo, po, route diet; for Hb / Ht / MCH / MCHC / MCV / Plat / RBC / Ret / WBC: tissue Blood; for KIDNEY_L / KIDNEY_R / KIDNEY_TOTAL: tissue Kidney; for LIVER: tissue Liver; for A/G / ALP / ALT / AST / BUN / CRE / Ca / Cl / DBIL / GLC / IP / K / LDH / Na / PL / RALB / TBIL / TC / TG / TP / gamma-GTP: tissue Plasma
[1] = 72 h, dose 0 %, dose level Control, time 3 day
[2] = 72 h, dose 9999 %, dose level High, time 3 day
[3] = […], dose 0 %, dose level Control, time 7 day
[4] = […], dose 0 %, dose level Control, time 14 day
[5] = […], dose 0 %, dose level Control, time 28 day
[6] = […], dose 9999 %, dose level High, time 7 day
[7] = […], dose 9999 %, dose level High, time 14 day
[8] = […], dose 9999 %, dose level High, time 28 day

Compound: CC(C)CCC[C@@H](C)[C@H]1CC[C@H]2[C@@H]3CC=C4C[C@@H](O)CC[C@]4(C)[C@H]3CC[C@]12C.C[C@H](CCC(=O)[O-])[C@H]1CC[C@@H]2[C@]1(C)[C@@H](O)C[C@@H]1[C@@]3(C)CC[C@@H](O)C[C@H]3C[C@@H](O)[C@@]21C.[Na+] [cholesterol + sodium cholate]
- TERMINAL_BW [1]: 232.1 g
- TERMINAL_BW [2]: 241.9 g
- Hb [1]: 12.9 g/dL
- Ht [1]: 35.6%
- MCH [1]: 23.1 pg
- MCHC [1]: 36.2%
- MCV [1]: 63.7 fL
- Plat [1]: 121.7 x10_4/uL
- RBC [1]: 558.2 x10_4/ul
- Ret [1]: 6.9%
- WBC [1]: 5.6 x10_2/uL
- Hb [2]: 12.6 g/dL
- Ht [2]: 35%
- MCH [2]: 22.5 pg
- MCHC [2]: 35.9%
- MCV [2]: 62.6 fL
- Plat [2]: 107.6 x10_4/uL
- RBC [2]: 559.2 x10_4/ul
- Ret [2]: 7%
- WBC [2]: 5.8 x10_2/uL
- KIDNEY_L [1]: 1 g
- KIDNEY_R [1]: 1 g
- KIDNEY_TOTAL [1]: 2 g
- KIDNEY_R [2]: 1.1 g
- KIDNEY_TOTAL [2]: 2.1 g
- LIVER [1]: 10.6 g
- LIVER [2]: 12.1 g
- A/G [1]: 1
- ALP [1]: 1907.2 IU/L
- ALT [1]: 41.8 IU/L
- AST [1]: 69 IU/L
- BUN [1]: 17.8 mg/dL
- CRE [1]: 0.2 mg/dL
- Ca [1]: 10.6 mg/dL
- Cl [1]: 102.1 meq/L
- DBIL [1]: 0 mg/dL
- GLC [1]: 176 mg/dL
- IP [1]: 7.2 mg/dL
- K [1]: 4.3 meq/L
- LDH [1]: 113.2 IU/L
- Na [1]: 139.7 meq/L
- PL [1]: 161.4 mg/dL
- RALB [1]: 2.9 g/dL
- TBIL [1]: 0 mg/dL
- TC [1]: 75 mg/dL
- TG [1]: 106.9 mg/dL
- TP [1]: 5.7 g/dL
- gamma-GTP [1]: 0.9 IU/L
- ALP [2]: 2118 IU/L
- ALT [2]: 42.4 IU/L
- AST [2]: 72.2 IU/L
- BUN [2]: 20.4 mg/dL
- Ca [2]: 10.8 mg/dL
- Cl [2]: 101.4 meq/L
- GLC [2]: 182.8 mg/dL
- IP [2]: 7.7 mg/dL
- K [2]: 4.5 meq/L
- LDH [2]: 149.4 IU/L
- Na [2]: 139.4 meq/L
- PL [2]: 157.4 mg/dL
- TC [2]: 187.2 mg/dL
- TG [2]: 136.6 mg/dL
- TP [2]: 5.9 g/dL
- gamma-GTP [2]: 0.8 IU/L
- TERMINAL_BW [3]: 274.4 g
- TERMINAL_BW [4]: 313.6 g
- TERMINAL_BW [5]: 422.8 g
- TERMINAL_BW [6]: 281.4 g
- TERMINAL_BW [7]: 337.1 g
- TERMINAL_BW [8]: 433.7 g
- Hb [3]: 13.2 g/dL
- Ht [3]: 36.5%
- MCH [3]: 22.4 pg
- MCHC [3]: 36.1%
- MCV [3]: 62.2 fL
- Plat [3]: 127.7 x10_4/uL
- RBC [3]: 587.8 x10_4/ul
- Ret [3]: 5.5%
- WBC [3]: 8.6 x10_2/uL
- Hb [4]: 12.6 g/dL
- Ht [4]: 38.3%
- MCH [4]: 19.3 pg
- MCHC [4]: 32.8%
- MCV [4]: 58.7 fL
- Plat [4]: 111.1 x10_4/uL
- RBC [4]: 654 x10_4/ul
- Ret [4]: 4.2%
- WBC [4]: 44.3 x10_2/uL
- Hb [5]: 13.3 g/dL
- Ht [5]: 39.2%
- MCH [5]: 18.8 pg
- MCHC [5]: 33.9%
- MCV [5]: 55.4 fL
- Plat [5]: 101.1 x10_4/uL
- RBC [5]: 707.2 x10_4/ul
- Ret [5]: 3%
- WBC [5]: 55.7 x10_2/uL
- Hb [6]: 12.5 g/dL
- Ht [6]: 34.9%
- MCH [6]: 21.6 pg
- MCHC [6]: 35.7%
- MCV [6]: 60.7 fL
- Plat [6]: 142.4 x10_4/uL
- RBC [6]: 574.8 x10_4/ul
- Ret [6]: 5.6%
- WBC [6]: 7.3 x10_2/uL
- Hb [7]: 11.8 g/dL
- Ht [7]: 36%
- MCH [7]: 19.1 pg
- MCHC [7]: 32.7%
- MCV [7]: 58.3 fL
- Plat [7]: 148.5 x10_4/uL
- RBC [7]: 617.4 x10_4/ul
- Ret [7]: 4.7%
- WBC [7]: 30.6 x10_2/uL
- Hb [8]: 13.1 g/dL
- Ht [8]: 39%
- MCHC [8]: 33.6%
- MCV [8]: 55.9 fL
- Plat [8]: 116.2 x10_4/uL
- RBC [8]: 698.8 x10_4/ul
- Ret [8]: 3.2%
- WBC [8]: 50.2 x10_2/uL
- KIDNEY_L [3]: 1.1 g
- KIDNEY_R [3]: 1.1 g
- KIDNEY_TOTAL [3]: 2.2 g
- KIDNEY_L [4]: 1.2 g
- KIDNEY_R [4]: 1.2 g
- KIDNEY_TOTAL [4]: 2.3 g
- KIDNEY_L [5]: 1.4 g
- KIDNEY_R [5]: 1.4 g
- KIDNEY_TOTAL [5]: 2.8 g
- KIDNEY_L [6]: 1.2 g
- KIDNEY_R [6]: 1.2 g
- KIDNEY_TOTAL [6]: 2.4 g
- KIDNEY_L [7]: 1.3 g
- KIDNEY_R [7]: 1.4 g
- KIDNEY_TOTAL [7]: 2.6 g
- KIDNEY_L [8]: 1.6 g
- KIDNEY_R [8]: 1.6 g
- KIDNEY_TOTAL [8]: 3.2 g
- LIVER [3]: 12.4 g
- LIVER [4]: 13.6 g
- LIVER [5]: 17.9 g
- LIVER [6]: 16.3 g
- LIVER [7]: 18.6 g
- LIVER [8]: 24.7 g
- A/G [3]: 1
- ALP [3]: 1589.8 IU/L
- ALT [3]: 34 IU/L
- AST [3]: 67.4 IU/L
- BUN [3]: 19.6 mg/dL
- CRE [3]: 0.2 mg/dL
- Ca [3]: 10.4 mg/dL
- Cl [3]: 105.2 meq/L
- DBIL [3]: 0 mg/dL
- GLC [3]: 193.4 mg/dL
- IP [3]: 7.3 mg/dL
- K [3]: 4.4 meq/L
- LDH [3]: 160.6 IU/L
- Na [3]: 141.5 meq/L
- PL [3]: 154.8 mg/dL
- RALB [3]: 2.8 g/dL
- TBIL [3]: 0 mg/dL
- TC [3]: 75.4 mg/dL
- TG [3]: 124.4 mg/dL
- TP [3]: 5.7 g/dL
- gamma-GTP [3]: 0.9 IU/L
- A/G [4]: 1
- ALP [4]: 1612.2 IU/L
- ALT [4]: 38.4 IU/L
- AST [4]: 79.8 IU/L
- BUN [4]: 18.5 mg/dL
- CRE [4]: 0.2 mg/dL
- Ca [4]: 10.5 mg/dL
- Cl [4]: 103.4 meq/L
- DBIL [4]: 0.002 mg/dL
- GLC [4]: 203.6 mg/dL
- IP [4]: 6.5 mg/dL
- K [4]: 3.7 meq/L
- LDH [4]: 284.8 IU/L
- Na [4]: 141.8 meq/L
- PL [4]: 139.4 mg/dL
- RALB [4]: 2.9 g/dL
- TBIL [4]: 0 mg/dL
- TC [4]: 62.4 mg/dL
- TG [4]: 145.6 mg/dL
- TP [4]: 5.8 g/dL
- gamma-GTP [4]: 1 IU/L
- A/G [5]: 0.8
- ALP [5]: 1365 IU/L
- ALT [5]: 31.4 IU/L
- AST [5]: 56.2 IU/L
- BUN [5]: 17.7 mg/dL
- CRE [5]: 0.2 mg/dL
- Ca [5]: 10.3 mg/dL
- Cl [5]: 103.3 meq/L
- DBIL [5]: 0.006 mg/dL
- GLC [5]: 210.8 mg/dL
- IP [5]: 6.4 mg/dL
- K [5]: 4.2 meq/L
- LDH [5]: 103.6 IU/L
- Na [5]: 139 meq/L
- PL [5]: 143.8 mg/dL
- RALB [5]: 2.8 g/dL
- TBIL [5]: 0 mg/dL
- TC [5]: 68.2 mg/dL
- TG [5]: 180.9 mg/dL
- TP [5]: 6 g/dL
- gamma-GTP [5]: 0.9 IU/L
- A/G [6]: 0.9
- ALP [6]: 1845.8 IU/L
- ALT [6]: 43.4 IU/L
- AST [6]: 79.8 IU/L
- BUN [6]: 18.6 mg/dL
- Ca [6]: 10.7 mg/dL
- Cl [6]: 103.2 meq/L
- GLC [6]: 190 mg/dL
- IP [6]: 7.6 mg/dL
- K [6]: 4.5 meq/L
- LDH [6]: 179.4 IU/L
- Na [6]: 140.8 meq/L
- PL [6]: 174 mg/dL
- RALB [6]: 3 g/dL
- TC [6]: 181 mg/dL
- TG [6]: 141.6 mg/dL
- TP [6]: 6.2 g/dL
- gamma-GTP [6]: 1.1 IU/L
- A/G [7]: 0.8
- ALP [7]: 1718.2 IU/L
- ALT [7]: 35.4 IU/L
- AST [7]: 68 IU/L
- BUN [7]: 18.4 mg/dL
- Ca [7]: 10.8 mg/dL
- Cl [7]: 101.7 meq/L
- DBIL [7]: 0 mg/dL
- GLC [7]: 200.2 mg/dL
- IP [7]: 6.7 mg/dL
- K [7]: 4.2 meq/L
- LDH [7]: 181.2 IU/L
- Na [7]: 141.2 meq/L
- PL [7]: 142.8 mg/dL
- TC [7]: 158.2 mg/dL
- TG [7]: 121.9 mg/dL
- TP [7]: 6.5 g/dL
- gamma-GTP [7]: 1.1 IU/L
- ALP [8]: 1155 IU/L
- ALT [8]: 34.6 IU/L
- AST [8]: 62.8 IU/L
- BUN [8]: 16.6 mg/dL
- Ca [8]: 10.7 mg/dL
- Cl [8]: 100.9 meq/L
- DBIL [8]: 0 mg/dL
- GLC [8]: 194 mg/dL
- IP [8]: 6.5 mg/dL
- K [8]: 3.9 meq/L
- LDH [8]: 135 IU/L
- Na [8]: 140.2 meq/L
- PL [8]: 146.2 mg/dL
- RALB [8]: 3 g/dL
- TC [8]: 147.6 mg/dL
- TG [8]: 120.2 mg/dL
- TP [8]: 6.8 g/dL
